Molecules are shown by their SMILES.

The test system of the assay is HCV 1b genotype. As to the kind of experiment: HCV Replicon assay (HCV 16-377-neo replicon cells). The assay is classed as cell-based. The note with it: Hepatitis C virus; HCV 1b genotype replicon cells; read-out: EC50 ranges against HCV 1b. A digest of the protocol: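 Inhibition measured in HCV 16-377-neo replicon cells, alongside replicon cells carrying the NS5A Y2065H resistance mutation.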
On to `CCN(CC)[C@@H](C(=O)N1CCC[C@H]1c1nc(C)c(-c2ccc(-c3ccc(-c4[nH]c([C@@H]5CCCN5C(=O)[C@@H](c5ccccc5)N(CC)CC)nc4C)cc3)cc2)[nH]1)c1ccccc1` [Example E5h, (1R,1'R)-2,2'-(4,4'-biphenyldiylbis((4-methyl-1H-imidazole-5,2-diyl)(2S)-2,1-pyrrolidinediyl))bis (N,N-diethyl-2-oxo-1-phenylethanamine)], for which the EC50 is 0.001 to 0.999 nM.

Regarding `COC(=O)N[C@@H](C)C(=O)N1CCC[C@H]1c1nc(-c2ccc(-c3ccc(-c4[nH]c([C@@H]5CCCN5C(=O)[C@H](C)NC(=O)OC)nc4C)cc3)cc2)c[nH]1` [Example E5d, methyl ((1S)-2-((2S)-2-(4-(4'-(2-((2S)-1-(N-(methoxycarbonyl)-L-alanyl)-2-pyrrolidinyl)-4-methyl-1H-imidazol-5-yl)-4-biphenylyl)-1H-imidazol-2-yl)-1-pyrrolidinyl)-1-methyl-2-oxoethyl)carbamate], the EC50 was in the range of 0.001 to 0.999 nM.

Regarding `COC(=O)NCC(=O)N1CC2(CC2)C[C@H]1c1nc(-c2ccc(-c3ccc(-c4c[nH]c([C@@H]5CC6(CC6)CN5C(=O)CNC(=O)OC)n4)cc3)cc2)c[nH]1` [Example M146, methyl (2-((6S)-6-(4-(4'-(2-((6S)-5-(((methoxycarbonyl)amino)acetyl)-5-azaspiro[2.4]hept-6-yl)-1H-imidazol-4-yl)-4-biphenylyl)-1H-imidazol-2-yl)-5-azaspiro[2.4]hept-5-yl)-2-oxoethyl)carbamate], the EC50 was 0.001 to 0.999 nM.

As to `CC(C)[C@H](N)C(=O)N1[C@@H]2C[C@@H]2C[C@H]1c1nc(-c2ccc(-c3ccc(-c4cnc([C@@H]5C[C@H]6C[C@H]6N5C(=O)[C@@H](N)C(C)C)[nH]4)cc3)cc2)c[nH]1` [Example M140a-i, (2S)-1-((1R,3S,5R)-3-(4-(4'-(2-((1R,3S,5R)-2-((2S)-2-amino-3-methylbutanoyl)-2-azabicyclo[3.1.0]hex-3-yl)-1H-imidazol-5-yl)-4-biphenylyl)-1H-imidazol-2-yl)-2-azabicyclo[3.1.0]hex-2-yl)-3-methyl-1-oxo-2-butanamine], the EC50 fell in the range of 1 to 99 nM.

In the case of `COC(=O)N[C@H](C(=O)N1CCC[C@H]1c1nc(-c2ccc(-c3ccc(-c4[nH]c([C@@H]5CCCN5C(=O)[C@@H](NC(=O)OC)C(C)C)nc4CO)cc3)cc2)c[nH]1)C(C)C` [Example J14f, methyl ((1S)-1-(((2S)-2-(4-(hydroxymethyl)-5-(4'-(2-((2S)-1-((2S)-2-((methoxycarbonyl)amino)-3-methylbutanoyl)-2-pyrrolidinyl)-1H-imidazol-4-yl)-4-biphenylyl)-1H-imidazol-2-yl)-1-pyrrolidinyl)carbonyl)-2-methylpropyl)carba mate], the EC50 fell in the range of 0.001 to 0.999 nM.

`COC(=O)N[C@@H](C)C(=O)N1[C@@H](C)CC[C@H]1c1nc(-c2ccc(-c3ccc(-c4c[nH]c([C@@H]5CC[C@H](C)N5C(=O)[C@H](C)NC(=O)OC)n4)cc3)cc2)c[nH]1` [Example M157, methyl ((1S)-2-((2S,5S)-2-(4-(4'-(2-((2S,5S)-1-(N-(methoxycarbonyl)-L-alanyl)-5-methyl-2-pyrrolidinyl)-1H-imidazol-4-yl)-4-biphenylyl)-1H-imidazol-2-yl)-5-methyl-1-pyrrolidinyl)-1-methyl-2-oxoethyl)carbamate]: the EC50 fell in the range of 0.001 to 0.999 nM.

For the compound `COC(=O)N[C@@H](C)C(=O)N1CCC[C@H]1c1nc(-c2ccc(-c3ccc(-c4nc([C@@H]5CCCN5C(=O)[C@H](C)NC(=O)OC)[nH]c4C)cc3)cc2)c(C)[nH]1` [Example E5k, methyl ((1S)-2-((2S)-2-(4-(4'-(2-((2S)-1-(N-(methoxycarbonyl)-L-alanyl)-2-pyrrolidinyl)-5-methyl-1H-imidazol-4-yl)-4-biphenylyl)-5-methyl-1H-imidazol-2-yl)-1-pyrrolidinyl)-1-methyl-2-oxoethyl)carbamate], the EC50 lay in the range of 0.001 to 0.999 nM.

For the compound `CC(C)CC(=O)N1[C@@H](C)CC[C@H]1c1nc(-c2ccc(-c3ccc(-c4c[nH]c([C@@H]5CC[C@H](C)N5C(=O)CC(C)C)n4)cc3)cc2)c[nH]1` [Example M158, 4,4'-(4,4'-biphenyldiyl)bis(2-((2S,5S)-5-methyl-1-(3-methylbutanoyl)-2-pyrrolidinyl)-1H-imidazole)], the EC50 is 1 to 99 nM.

Consider `CC[C@H](NC(=O)OC)C(=O)N1[C@@H]2C[C@@H]2C[C@H]1c1nc(-c2ccc(-c3ccc(-c4c[nH]c([C@@H]5C[C@H]6C[C@H]6N5C(=O)[C@H](CC)NC(=O)OC)n4)cc3)cc2)c[nH]1` [Example M133, dimethyl (4,4'-biphenyldiylbis(1H-imidazole-4,2-diyl(1R,3S,5R)-2-azabicyclo[3.1.0]hexane-3,2-diyl((2S)-1-oxo-1,2-butanediyl)))biscarbamate], for which the EC50 fell in the range of 0.001 to 0.999 nM.

For the compound `COC(=O)N[C@@H](C(=O)N1CCC[C@H]1c1nc(C)c(-c2ccc(-c3ccc(-c4[nH]c([C@@H]5CCCN5C(=O)[C@H](NC(=O)OC)c5ccccc5)nc4C)cc3)cc2)[nH]1)c1ccccc1` [Example E5j, dimethyl (4,4'-biphenyldiylbis((4-methyl-1H-imidazole-5,2-diyl)(2S)-2,1-pyrrolidinediyl((1R )-2-oxo-1-phenyl-2,1-ethanediyl)))biscarb amate], the EC50 fell in the range of 0.001 to 0.999 nM.

As to `COC(=O)N[C@@H](C(=O)N1CCC[C@H]1c1nc(-c2ccc(-c3ccc(-c4nc([C@@H]5CCCN5C(=O)[C@H](NC(=O)OC)c5ccccc5)[nH]c4C)cc3)cc2)c[nH]1)c1ccccc1` [Example E5c, methyl ((1R)-2-((2S)-2-(4-(4'-(2-((2S)-1-((2R)-2-((methoxycarbonyl)amino)-2-phenylacetyl)-2-pyrrolidinyl)-1H-imidazol-4-yl)-4-biphenylyl)-5-methyl-1H-imidazol-2-yl)-1-pyrrolidinyl)-2-oxo-1-phenylethyl)carbam ate], the EC50 fell in the range of 0.001 to 0.999 nM.

For `CCN(CC)[C@@H](C(=O)N1CC(F)(F)C[C@H]1c1nc(-c2ccc(-c3ccc(-c4c[nH]c([C@@H]5CCCN5C(=O)[C@@H](c5ccccc5)N(CC)CC)n4)c(F)c3)cc2)c[nH]1)c1ccccc1` [Example J14e.1, (1R)-2-((2S)-2-(4-(4'-(2-((2S)-1-((2R)-2-(diethylamino)-2-phenylacetyl)-4,4-difluoro-2-pyrrolidinyl)-1H-imidazol-4-yl)-3-fluoro-4-biphenylyl)-1H-imidazol-2-yl)-1-pyrrolidinyl)-N,N-diethyl-2-oxo-1-phenylethanamine], the EC50 was 0.001 to 0.999 nM.

On to `COC(=O)N[C@@H](C(=O)N1CC2(CC2)C[C@H]1c1nc(-c2ccc(-c3ccc(-c4c[nH]c([C@@H]5CC6(CC6)CN5C(=O)[C@H](NC(=O)OC)C(C)C)n4)cc3)cc2)c[nH]1)C(C)C` [Example M149, methyl ((1R)-1-(((6S)-6-(4-(4'-(2-((6S)-5-((2R)-2-((methoxycarbonyl)amino)-3-methylbutanoyl)-5-azaspiro[2.4]hept-6-yl)-1H-imidazol-4-yl)-4-biphenylyl)-1H-imidazol-2-yl)-5-azaspiro[2.4]hept-5-yl)carbonyl)-2-methylpropyl)carbamate], for which the EC50 is 1 to 99 nM.

Take `COC(=O)N[C@H](C(=O)N1CCC[C@H]1c1nc(-c2ccc(-c3ccc(-c4nc([C@@H]5CCCN5C(=O)[C@@H](NC(=O)OC)C(C)C)[nH]c4C)cc3)cc2)c[nH]1)C(C)C` [Example E5e, methyl ((1S)-1-(((2S)-2-(4-(4'-(2-((2S)-1-((2S)-2-((methoxycarbonyl)amino)-3-methylbutanoyl)-2-pyrrolidinyl)-1H-imidazol-4-yl)-4-biphenylyl)-5-methyl-1H-imidazol-2-yl)-1-pyrrolidinyl)carbonyl)-2-methylpropyl)carba mate]: the EC50 is 0.001 to 0.999 nM.

Turning to `CC(=O)N[C@H](C(=O)N1[C@@H]2C[C@@H]2C[C@H]1c1ncc(-c2ccc(-c3ccc(-c4cnc([C@@H]5C[C@H]6C[C@H]6N5C(=O)[C@@H](NC(C)=O)C(C)C)[nH]4)cc3)cc2)[nH]1)C(C)C` [Example M140, N((1S)-1-(((1R,3S,SR)-3-(4-(4'-(2-((1R,3S,SR)-2-((2S)-2-acetamido-3-methylbutanoyl)-2-azabicyclo[3.1.0]hex-3-yl)-1H-imidazol-4-yl)-4-biphenylyl)-1H imidazol-2-yl)-2-azabicyclo[3.1.0]hex-2-yl)carbonyl)-2-methylpropyl)acetamide], the EC50 is 0.001 to 0.999 nM.

As for `COC(=O)N[C@@H](C(=O)N1[C@@H]2C[C@@H]2C[C@H]1c1nc(-c2ccc(-c3ccc(-c4c[nH]c([C@@H]5C[C@H]6C[C@H]6N5C(=O)[C@H](NC(=O)OC)C(C)C)n4)cc3)cc2)c[nH]1)C(C)C` [Example M136, methyl ((1R)-1-(((1R,3S,5R)-3-(4-(4'-(2-((1R,3S,5R)-2-((2R)-2-((methoxycarbonyl)amino)-3-methylbutanoyl)-2-azabicyclo[3.1.0]hex-3-yl)-1H-imidazol-4-yl)-4-biphenylyl)-1H-imidazol-2-yl)-2-azabicyclo[3.1.0]hex-2-yl)carbonyl)-2-methylpropyl)carbamate], the EC50 is 1 to 99 nM.

`COC(=O)N[C@@H](C)C(=O)N1CCC[C@H]1c1nc(-c2ccc(-c3ccc(-c4[nH]c([C@@H]5CCCN5C(=O)[C@H](C)NC(=O)OC)nc4CO)cc3)cc2)c[nH]1` [Example J14f.1, methyl ((1S)-2-((2S)-2-(4-(4'-(4-(hydroxymethyl)-2-((2S)-1-(N-(methoxycarbonyl)-L-alanyl)-2-pyrrolidinyl)-1H-imidazol-5-yl)-4-biphenylyl)-1H-imidazol-2-yl)-1-pyrrolidinyl)-1-methyl-2-oxoethyl)carbamate]: the EC50 was in the range of 1 to 99 nM.

As to `COC(=O)N[C@H](C(=O)N1[C@@H]2C[C@@H]2C[C@H]1c1nc(-c2ccc(-c3ccc(-c4c[nH]c([C@@H]5CC6C[C@H]6N5C(C)=O)n4)cc3)cc2)c[nH]1)C(C)C` (mixture of isomers) [Example M138, methyl ((1S)-1-(((1R,3S,5R)-3-(4-(4'-(2-((1R,3S,SR)-2-acetyl-2-azabicyclo[3.1.0]hex-3yl)-1Himidazol-4yl)-4-biphenylyl)-1Himidazol-2-yl)-2-azabicyclo[3.1.0]hex-2-yl)carbonyl)-2-methylpropyl)carbamate], the concentration giving a half-maximal response (EC50) was in the range of 0.001 to 0.999 nM.
